According to patent US12708608B2, “Methods of treating schizophrenia and other neuropsychiatric disorders” (UNIVERSITY OF ROCHESTER, priority 2018, dated 2026):
“Also recorded” adds a separate entry of the source. Like-named read-outs stand apart in the source and are kept apart here.

How the values were obtained:
Type in all cases: cell-based, human
[1] = test system: CTR astrocytes; assay: Potassium (86Rb) uptake by control-derived astrocytes; settings: 4 CTR lines, drug-treated
Protocol: (§1) Potassium uptake Astrocytes were plated onto poly-ornithine- and laminin-coated 24-well plates with 30,000 cells/well. For the potassium uptake assay, astrocytes were incubated with ^86Rb (1.0-3.3 uCi/well) for 15 min, and then they were washed three time with ice-cold artificial cerebrospinal fluid (aCSF, 500 μL/well). For cell lysis, 0.5N NaOH (200 μL/well) was put into each well, which was put into 5 ml cocktail liquid (Ultima Gold, Fisher Scientific, 509050575) and measured by scintillation counter (Beckman Coulter, LS6500), and the results were normalized to both total protein (BCA Protein Assay Kit, Fisher Scientific, 23227) and cell number (Hemocytometer, Fisher Scientific, 02-671-54). The aCSF solution contained (in mM) 124 NaCl, 2.5 KCl, 1.75 NaH2PO4, 2 MgCl2, 2 CaCl2, 0.04 Vit.C, 10 glucose and 26 NaHCO3, pH 7.4.
Next, functional K^+ uptake was assessed directly, in cultured SCZ- and CTR-derived astrocytes. To obtain mature SCZ and CTR astrocyte cultures, CD44-sorted astrocyte-biased progenitors were cultured in base media supplemented with 10% fetal bovine serum (FBS) and 20 ng/ml BMP4 for 3 weeks, so as to potentiate the differentiation of mature, glial fibrillary acidic protein (GFAP)-expressing, fiber-bearing astrocytes (FIGS. 5A-5C). […] Astrocytes from 4 different SCZ and 4 different CTR lines were then incubated with ^86Rb, a surrogate monovalent cation for K^+ uptake (Larsen et al., “Contributions of the Na(+)/K(+)-ATPase, NKCC1, and Kir4.1 to Hippocampal K(+) Clearance and Volume Responses,” Glia 62:608-622 (2014), which is hereby incorporated by reference in its entirety), and rubidium uptake measured as a function of both cell number and total protein.

[2] = test system: SCZ astrocytes; assay: Potassium (86Rb) uptake by schizophrenia-derived astrocytes; settings: 4 SCZ lines, drug-treated
Protocol: as §1, with “The aCSF solution contained (in mM) 124 NaCl, 2.5 KCl, 1.75 NaH2PO4, 2 MgCl2, 2 CaCl2, 0.04 Vit.C, 10 glucose and 26 NaHCO3, pH 7.4.” left out
Next, functional K^+ uptake was assessed directly, in cultured SCZ- and CTR-derived astrocytes. […] Astrocytes from 4 different SCZ and 4 different CTR lines were then incubated with ^86Rb, a surrogate monovalent cation for K^+ uptake (Larsen et al., “Contributions of the Na(+)/K(+)-ATPase, NKCC1, and Kir4.1 to Hippocampal K(+) Clearance and Volume Responses,” Glia 62:608-622 (2014), which is hereby incorporated by reference in its entirety), and rubidium uptake measured as a function of both cell number and total protein.
To test this postulate, lentivirus was used to overexpress REST in CTR glial cells, and K^+ uptake by the transduced cells was assessed.

[3] = test system: REST-overexpressing CTR astrocytes; assay: Potassium (86Rb) uptake by CTR astrocytes transduced to over-express REST
[4] = test system: REST shRNAi-transduced SCZ astrocytes; assay: Potassium (86Rb) uptake by SCZ astrocytes with REST knockdown

| Molecule | K+ uptake by CTR astrocytes [1] | K+ uptake by SCZ astrocytes [2] | K+ uptake by REST-overexpressing CTR astrocytes ([3]; 86Rb uptake, lentiviral-REST transduced CTR astrocytes, drug-treated) | K+ uptake by SCZ glia with REST knockdown ([4]; 86Rb uptake, REST shRNAi-transduced SCZ astrocytes, drug-treated) | K+ uptake by CTR astrocytes ([1]; listed as Ouabain) | K+ uptake by REST-overexpressing CTR astrocytes [3] | K+ uptake by SCZ glia with REST knockdown [4] |
| --- | --- | --- | --- | --- | --- | --- | --- |
| CCCCNc1cc(C(=O)O)cc(S(N)(=O)=O)c1Oc1ccccc1 [bumetanide] | significantly inhibited; also recorded: efficiently decreased | neither ouabain nor bumetanide affected; also recorded: neither affected | Neither ouabain nor bumetanide further decreased | significantly reduced; also recorded: significantly inhibited |  |  |  |
| tertiapin (ALCNCNRIIIPHMCWKKCGKK; UniProt P56587 1-21, looked up) [drug which targets Kir (inwardly rectifying K+) channels] | did not |  |  |  |  |  |  |
| C[C@@H]1O[C@@H](O[C@H]2C[C@@H](O)[C@]3(CO)[C@H]4[C@H](O)C[C@]5(C)[C@@H](C6=CC(=O)OC6)CC[C@]5(O)[C@@H]4CC[C@]3(O)C2)[C@H](O)[C@H](O)[C@H]1O [ouabain] | significantly inhibited; also recorded: efficiently decreased | neither ouabain nor bumetanide affected; also recorded: neither affected |  |  | significantly inhibited | Neither ouabain nor bumetanide further decreased | significantly reduced; also recorded: significantly inhibited |
